Assay results as given in patent publication US20240218022A1, “ANTI-VISTA MACROCYCLIC PEPTIDES AND COMPOSITIONS” (BRISTOL-MYERS SQUIBB COMPANY, priority 2022, published 2024).
Read-outs that look alike come from different tables or passages of the source. Starred links: 1 amine or outer side, 2 acyl side, 3 side chain; linkers in the order of their positions; H or OH if unused. Positions of bridges follow the written chain, without caps; N, C: chain ends. Non-standard residues stand in square brackets, D forms with d. Residues, ends and D or L forms follow the SMILES beside them. ξ: configuration not given here. Phe(2,4-F2) = N[C@@H](Cc1ccc(F)cc1F)C(=O)O; Phe(3-Me) = Cc1cccc(C[C@H](N)C(=O)O)c1; γGlu = O=C(O)[C@H](CCC(=O)[*:2])N[*:1]; 2Nal = N[C@@H](Cc1ccc2ccccc2c1)C(=O)O; βAsp = O=C(O)[C@H](CC(=O)[*:2])N[*:1]; Tic = O=C(O)[C@@H]1Cc2ccccc2CN1; Ahp(2) = CCCCC[C@H](N)C(=O)O; NMeNle = CCCC[C@H](NC)C(=O)O; Tle = CC(C)(C)[C@H](N)C(=O)O; NHexGly = CCCCCCNCC(=O)O; Nle = CCCC[C@H](N)C(=O)O; Orn = NCCC[C@H](N)C(=O)O; Aun = NCCCCCCCCCCC(=O)O; Nva = CCC[C@H](N)C(=O)O; AEEA = NCCOCCOCC(=O)O; ξS = NC(CO)C(=O)O

Biological target: T1, mouse VISTA (mVISTA) (Mus musculus, UniProt Q9D659)
T1 construct: expressed in transfected cells; host or cells: Human embryonic kidney 293T cells
T1 sequence (Q9D659 33-308): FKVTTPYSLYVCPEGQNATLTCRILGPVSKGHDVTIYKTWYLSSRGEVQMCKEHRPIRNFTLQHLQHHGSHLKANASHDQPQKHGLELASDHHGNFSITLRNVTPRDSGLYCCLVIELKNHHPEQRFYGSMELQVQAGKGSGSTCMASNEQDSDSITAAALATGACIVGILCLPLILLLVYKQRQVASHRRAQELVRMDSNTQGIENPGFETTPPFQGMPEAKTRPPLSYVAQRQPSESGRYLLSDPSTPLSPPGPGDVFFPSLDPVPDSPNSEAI
Assay: Cell-Based Binding High-Content Assay For mVISTA (HC CBA mVISTA)
In short: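 293T cells expressing mouse VISTA, with compounds added either after seeding ("no wash") or before seeding and then washed out after 1 h. Biotinylated peptide 2 nM for 30 min at room temperature, then detection with Alexa 647–streptavidin. After fixation with Hoechst stain, plates were high-content imaged; IC50 from four-parameter logistic fit.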

[1] = 293T cells expressing mouse VISTA, competition with biotinylated peptide (2 nM), read-out: HC CBA mVISTA IC50

IC50 (read-out: HC CBA mVISTA IC50) [nM] | Compound | other results
18.1 | CCCCCCN1CC(=O)N[C@@H](Cc2ccc(O)cc2)C(=O)N[C@@H](CCCC)C(=O)N[C@@H](CC(N)=O)C(=O)N[C@@H](CCCNC(=N)N)C(=O)N2Cc3ccccc3C[C@H]2C(=O)N[C@@H](CCCCC)C(=O)N2CCC[C@H]2C(=O)N[C@@H](C(C)C)C(=O)N[C@@H](CO)C(=O)N[C@H](C(=O)NCC(N)=O)CSCC(=O)N[C@@H](Cc2ccccc2)C(=O)N[C@@H](Cc2c[nH]c3ccccc23)C(=O)N[C@@H](CC(=O)O)C1=O [Example 1415] ({CH2CO}-FWD[NHexGly]Y[Nle]NR[Tic][Ahp(2)]PVSCG-NH2; thioether N-14) | 
17.9 | CCCCCCN1CC(=O)N[C@@H](Cc2ccc(O)cc2)C(=O)N[C@@H](CCCC)C(=O)N[C@@H](CC(N)=O)C(=O)N[C@@H](CCCNC(=N)N)C(=O)N[C@@H](CC(C)C)C(=O)N[C@@H](CCCCC)C(=O)N2CCC[C@@H]2C(=O)N[C@@H](C(C)C)C(=O)N[C@@H](CO)C(=O)N[C@H](C(=O)NCC(=O)N[C@@H](CCC(=O)NCCOCCOCC(=O)N[C@@H](CC(=O)O)C(=O)NCCOCCOCC(=O)NCCCCCCCCCCC(=O)O)C(=O)O)CSCC(=O)N[C@@H](Cc2ccc3ccccc3c2)C(=O)N[C@@H](Cc2ccc(O)cc2)C(=O)N[C@@H](CC(=O)O)C1=O [compound 2123] ({CH2CO}-[2Nal]YD[NHexGly]Y[Nle]NRL[Ahp(2)][dP]VSCG[γGlu][AEEA]D[AEEA][Aun]-OH; thioether N-14) | 
23.6 | CCCCCCN1CC(=O)N[C@@H](Cc2ccc(O)cc2)C(=O)N[C@@H](CCCCC)C(=O)N[C@@H](CC(N)=O)C(=O)N[C@@H](CCCNC(=N)N)C(=O)N(C)[C@@H](CCCC)C(=O)N[C@@H](CCCCC)C(=O)N2CCC[C@H]2C(=O)N[C@@H](C(C)C)C(=O)N[C@@H](CC(=O)O)C(=O)N[C@H](C(=O)NC(CO)C(=O)O)CSCC(=O)N[C@@H](Cc2ccc(F)cc2F)C(=O)N[C@@H](Cc2ccc(F)cc2F)C(=O)N[C@@H](CC(=O)O)C1=O (some centres unmarked) [compound 1218] ({CH2CO}-[Phe(2,4-F2)][Phe(2,4-F2)]D[NHexGly]Y[Ahp(2)]NR[NMeNle][Ahp(2)]PVDC[ξS]-OH; thioether N-14) | 
 | CCCCCCN1CC(=O)N[C@@H](Cc2ccc(O)cc2)C(=O)N[C@@H](CCCCC)C(=O)N[C@@H](CCCCN)C(=O)N[C@@H](CCCNC(=N)N)C(=O)N[C@@H](CC(C)C)C(=O)N[C@@H](CCCCC)C(=O)N2CCC[C@H]2C(=O)N[C@@H](C(C)C)C(=O)N[C@@H](CO)C(=O)N[C@H](C(=O)NCC(N)=O)CSCC(=O)N[C@@H](Cc2ccccc2)C(=O)N[C@@H](Cc2ccc(O)cc2)C(=O)N[C@@H](CC(=O)O)C1=O [Example 1056] ({CH2CO}-FYD[NHexGly]Y[Ahp(2)]KRL[Ahp(2)]PVSCG-NH2; thioether N-14) | IC50 [1]: 17.1 nM
17.2 | CCCCCCN1CC(=O)N[C@@H](Cc2ccc(O)cc2)C(=O)N[C@@H](CCCC)C(=O)N[C@@H](CC(=O)O)C(=O)N[C@@H](CCCN)C(=O)N(C)[C@@H](CCCC)C(=O)N[C@@H](CCCCC)C(=O)N2CCC[C@H]2C(=O)N[C@@H](C(C)(C)C)C(=O)N[C@@H](CC(=O)O)C(=O)N[C@H](C(=O)NCC(N)=O)CSCC(=O)N[C@@H](Cc2ccccc2)C(=O)N[C@@H](Cc2c[nH]c3ccccc23)C(=O)N[C@@H](CC(=O)O)C1=O [Example 1393] ({CH2CO}-FWD[NHexGly]Y[Nle]D[Orn][NMeNle][Ahp(2)]P[Tle]DCG-NH2; thioether N-14) | 
 | CCCCCCN1CC(=O)N[C@@H](Cc2ccc(O)cc2)C(=O)N[C@@H](CCCC)C(=O)N[C@@H](CC(N)=O)C(=O)N[C@@H](CCCNC(=N)N)C(=O)N(C)[C@@H](CCCC)C(=O)N[C@@H](CCCCC)C(=O)N2CCC[C@H]2C(=O)N[C@@H](C(C)(C)C)C(=O)N[C@@H](CO)C(=O)N[C@H](C(=O)N[C@@H](CC(=O)NCCOCCOCC(=O)N[C@@H](CC(=O)O)C(=O)NCCOCCOCC(=O)NCCCCCCCCCCC(=O)O)C(=O)O)CSCC(=O)N[C@@H](Cc2ccccc2)C(=O)N[C@@H](Cc2c[nH]c3ccccc23)C(=O)N[C@@H](CC(=O)O)C1=O [compound 2022] ({CH2CO}-FWD[NHexGly]Y[Nle]NR[NMeNle][Ahp(2)]P[Tle]SC[βAsp][AEEA]D[AEEA][Aun]-OH; thioether N-14) | IC50 (cell-based binding high-content assay, mVISTA, read-out: HC CBA miPr ISTA IC50): 22.7 nM
 | CCCCCCN1CC(=O)N[C@@H](Cc2ccc(O)cc2)C(=O)N[C@@H](CC(C)C)C(=O)NCC(=O)N[C@@H](CCCNC(=N)N)C(=O)N(C)[C@@H](CCCC)C(=O)N[C@@H](CCCCC)C(=O)N2CCC[C@H]2C(=O)N[C@@H](C(C)C)C(=O)N[C@@H](CO)C(=O)N[C@H](C(=O)NCC(=O)O)CSCC(=O)N[C@@H](Cc2ccc3ccccc3c2)C(=O)N[C@@H](Cc2ccc(O)cc2)C(=O)N[C@@H](CC(=O)O)C1=O [Ex 1291] ({CH2CO}-[2Nal]YD[NHexGly]YLGR[NMeNle][Ahp(2)]PVSCG-OH; thioether N-14) | IC50 (cell-based binding high-content assay, mVISTA, the 16th table, read-out: HC CBA mVISTA IC50): 5.1 nM
16.2 | CCCCCCN1CC(=O)N[C@@H](Cc2ccc(O)cc2)C(=O)N[C@@H](CCCCC)C(=O)N[C@@H](CC(N)=O)C(=O)N[C@@H](CCCNC(=N)N)C(=O)N(C)[C@@H](CCCC)C(=O)N[C@@H](CCCCC)C(=O)N2CCC[C@H]2C(=O)N[C@@H](C(C)C)C(=O)N[C@@H](C(C)C)C(=O)N[C@H](C(=O)NCC(=O)O)CSCC(=O)N[C@@H](Cc2ccc(F)cc2F)C(=O)N[C@@H](Cc2ccc(F)cc2F)C(=O)N[C@@H](CC(=O)O)C1=O [compound 1217] ({CH2CO}-[Phe(2,4-F2)][Phe(2,4-F2)]D[NHexGly]Y[Ahp(2)]NR[NMeNle][Ahp(2)]PVVCG-OH; thioether N-14) | 
14.3 | CCCCCCN1CC(=O)N[C@@H](Cc2ccc(O)cc2)C(=O)N[C@@H](CCCC)C(=O)N[C@@H](CC(=O)O)C(=O)N[C@@H](CCCN)C(=O)N[C@@H](CC(C)C)C(=O)N[C@@H](CCCCC)C(=O)N2CCC[C@H]2C(=O)N[C@@H](C(C)C)C(=O)N[C@@H](CC(=O)O)C(=O)N[C@H](C(=O)NC(CO)C(N)=O)CSCC(=O)N[C@@H](Cc2ccccc2)C(=O)N[C@@H](Cc2cccc(C)c2)C(=O)N[C@@H](CC(=O)O)C1=O (some centres unmarked) [compound 1331] ({CH2CO}-F[Phe(3-Me)]D[NHexGly]Y[Nle]D[Orn]L[Ahp(2)]PVDC[ξS]-NH2; thioether N-14) | 
 | CCCCCCN1CC(=O)N[C@@H](Cc2ccc(O)cc2)C(=O)N[C@@H](CC(C)C)C(=O)N[C@@H](CC(N)=O)C(=O)N[C@@H](CCCNC(=N)N)C(=O)N[C@@H](CC(C)C)C(=O)N[C@@H](CCCCC)C(=O)N2CCC[C@H]2C(=O)N[C@@H](C(C)C)C(=O)N[C@@H](CC(=O)O)C(=O)N[C@H](C(=O)NCC(=O)O)CSCC(=O)N[C@@H](Cc2ccccc2)C(=O)N[C@@H](Cc2ccc(O)cc2)C(=O)N[C@@H](CC(=O)O)C1=O [Example 1011] ({CH2CO}-FYD[NHexGly]YLNRL[Ahp(2)]PVDCG-OH; thioether N-14) | IC50 [1]: 15.9 nM
24.7 | CCCCCCN1CC(=O)N[C@@H](Cc2ccc(O)cc2)C(=O)N[C@@H](CCCCC)C(=O)N[C@@H](CC(N)=O)C(=O)N[C@@H](CCCNC(=N)N)C(=O)N(C)[C@@H](CCCC)C(=O)N[C@@H](CCCCC)C(=O)N2CCC[C@H]2C(=O)N[C@@H](C(C)C)C(=O)N[C@@H](C(C)C)C(=O)N[C@H](C(=O)NCC(=O)O)CSCC(=O)N[C@@H](Cc2ccc(F)cc2F)C(=O)N[C@@H](Cc2c[nH]c3ccccc23)C(=O)N[C@@H](CC(=O)O)C1=O [compound 1220] ({CH2CO}-[Phe(2,4-F2)]WD[NHexGly]Y[Ahp(2)]NR[NMeNle][Ahp(2)]PVVCG-OH; thioether N-14) | 
2.6 | CCCCCCN1CC(=O)N[C@@H](Cc2ccc(O)cc2)C(=O)N[C@@H](CCC)C(=O)N[C@@H](CC(N)=O)C(=O)N[C@@H](CCCNC(=N)N)C(=O)N[C@@H](CC(C)C)C(=O)N[C@@H](CCCCC)C(=O)N2CCC[C@H]2C(=O)N[C@@H](C(C)C)C(=O)N2CCC[C@H]2C(=O)N[C@H](C(=O)NCC(=O)O)CSCC(=O)N[C@@H](Cc2ccccc2)C(=O)N[C@@H](Cc2ccc(O)cc2)C(=O)N[C@@H](CC(=O)O)C1=O [compound 1120] ({CH2CO}-FYD[NHexGly]Y[Nva]NRL[Ahp(2)]PVPCG-OH; thioether N-14) | 
 | CCCCCCN1CC(=O)N[C@@H](Cc2ccc(O)cc2)C(=O)N[C@@H](CCCC)C(=O)N[C@@H](CC(N)=O)C(=O)N[C@@H](CCCNC(=N)N)C(=O)N(C)[C@@H](CCCC)C(=O)N[C@@H](CCCCC)C(=O)N2CCC[C@H]2C(=O)N[C@@H](C(C)C)C(=O)N[C@@H](CC(=O)O)C(=O)N[C@H](C(=O)NCC(=O)O)CSCC(=O)N[C@@H](Cc2ccc3ccccc3c2)C(=O)N[C@@H](Cc2c[nH]c3ccccc23)C(=O)N[C@@H](CC(=O)O)C1=O [compound 1245] ({CH2CO}-[2Nal]WD[NHexGly]Y[Nle]NR[NMeNle][Ahp(2)]PVDCG-OH; thioether N-14) | IC50 (cell-based binding high-content assay, mVISTA, the 15th table, read-out: HC CBA mVISTA IC50): 6.2 nM
 | CCCCCCN1CC(=O)N[C@@H](Cc2ccc(O)cc2)C(=O)N[C@@H](CC(C)C)C(=O)N[C@@H](CC(N)=O)C(=O)N[C@@H](CCCNC(=N)N)C(=O)N(C)[C@@H](CCCC)C(=O)N[C@@H](CCCCC)C(=O)N2CCC[C@H]2C(=O)N[C@@H](C(C)(C)C)C(=O)N[C@@H](C(C)C)C(=O)N[C@H](C(=O)N[C@@H](CC(=O)NCCOCCOCC(=O)N[C@@H](CC(=O)O)C(=O)NCCOCCOCC(=O)NCCCCCCCCCCC(=O)O)C(=O)O)CSCC(=O)N[C@@H](Cc2ccccc2)C(=O)N[C@@H](Cc2cccc(C)c2)C(=O)N[C@@H](CC(=O)O)C1=O [compound 2073] ({CH2CO}-F[Phe(3-Me)]D[NHexGly]YLNR[NMeNle][Ahp(2)]P[Tle]VC[βAsp][AEEA]D[AEEA][Aun]-OH; thioether N-14) | IC50 (cell-based binding high-content assay, mVISTA, read-out: HC CBA miPrISTA IC50): 33.4 nM
